Assay results reported in EPA's CvTdb concentration-time database.

Experiments:
Rat [1] = assay: concentration in brain after dosing
Rat [2] = assay: concentration in plasma after dosing
rat [3] = assay: amount in urine after dosing (umol); settings: inhalation, duration: 4 hr, F344 (Harlan Winkelmann)
Rat [4] = assay: concentration in liver after dosing; settings: dosed: Fluorotelomer alcohol 8+2, oral
Rat [5] = assay: concentration in kidney after dosing; settings: dosed: Fluorotelomer alcohol 8+2, oral

CC1CCCO1 (stereo not given) [2-Methyltetrahydrofuran]
dosed: 2-Methyltetrahydrofuran, 40 mg/kg, iv, Harlan Sprague Dawley
Settings	concentration in brain, Rat [1] [µg/mL]	concentration in plasma, Rat [2] [µg/mL]
0.2 h, Male	24.7	35
0.5 h, Female	15.4	27.2
0.5 h, Male	13.5	32.2
0.75 h, Male	22	24
1.5 h, Male	9.21	14
2 h, Female	5.7	7.55
2 h, Male	9.63	10.7
2 min, Female	41.7	73.3
2 min, Male	32.4	50
4 h, Female	0.0736	0.101
4 h, Male	0.356	0.977
6 h, Female	–	0.0133
6 h, Male	0.0215	0.00893
7 min, Male	29.7	46.5

CC(C)(O)C(=O)O [2-hydroxyisobutyrate]
rat [3]
Settings	amount in urine
5.92 h, dosed: ethyl tert-butyl ether, 4.5 ppm	0.229
5.923 h, dosed: methyl tert-butyl ether, 38.7 ppm	1.23
5.99 h, dosed: ethyl tert-butyl ether, 40.6 ppm	1.23
11.86 h, dosed: ethyl tert-butyl ether, 4.5 ppm	0.657
11.94 h, dosed: ethyl tert-butyl ether, 40.6 ppm	3.65
11.94 h, dosed: methyl tert-butyl ether, 38.7 ppm	6.37
11.97 h, dosed: methyl tert-butyl ether, 4.5 ppm	0.837
17.79 h, dosed: ethyl tert-butyl ether, 4.5 ppm	1.03
17.99 h, dosed: methyl tert-butyl ether, 38.7 ppm	2.57
18.01 h, dosed: methyl tert-butyl ether, 4.5 ppm	0.625
18.03 h, dosed: ethyl tert-butyl ether, 40.6 ppm	5.39
23.79 h, dosed: ethyl tert-butyl ether, 4.5 ppm	0.405
23.95 h, dosed: methyl tert-butyl ether, 4.5 ppm	0.205
23.95 h, dosed: methyl tert-butyl ether, 38.7 ppm	0.915
23.98 h, dosed: ethyl tert-butyl ether, 40.6 ppm	0.922
29.73 h, dosed: ethyl tert-butyl ether, 4.5 ppm	0.355
29.93 h, dosed: ethyl tert-butyl ether, 40.6 ppm	0.521
29.93 h, dosed: methyl tert-butyl ether, 38.7 ppm	0.315
29.96 h, dosed: methyl tert-butyl ether, 4.5 ppm	0.239

CC(O)C(C)(C)O (stereo not given) [2-methyl-2,3-butanediol]
amount in urine, rat [3], dosed: tert-amyl methyl ether
Settings	3.8 ppm	38.4 ppm
5.961 h	–	1.13
5.981 h	0.237	–
11.86 h	0.262	–
12.08 h	–	2.25
17.94 h	0.179	1.18
23.82 h	0.0479	–
23.95 h	–	0.366
29.9 h	0.0229	–
29.96 h	–	0.165
35.73 h	0.0302	–
36.08 h	–	0.225
41.81 h	0.024	–
41.88 h	–	0.175
47.74 h	0.0115	–
47.95 h	–	0.084

O=C(O)CCC(F)(F)C(F)(F)C(F)(F)C(F)(F)C(F)(F)C(F)(F)C(F)(F)F [Fluorotelomer acid 7+3]
Settings	concentration in kidney, Rat [5] [ng/g]	concentration in liver, Rat [4] [ng/g]
0.5 h, 24 mg/kg, Male, Harlan Sprague Dawley	224	300
0.5 h, 24 mg/kg, Male, Harlan Sprague Dawley - this seems too small	129	195
0.5 h, 80 mg/kg, Female, Harlan Sprague Dawley	418	1070
1 h, 24 mg/kg, Male, Harlan Sprague Dawley	291	784
1 h, 80 mg/kg, Female, Harlan Sprague Dawley	883	2270
3 h, 24 mg/kg, Male, Harlan Sprague Dawley	1640	3250
3 h, 80 mg/kg, Female, Harlan Sprague Dawley	3250	8230
6 h, 24 mg/kg, Male, Harlan Sprague Dawley	1200	3160
6 h, 80 mg/kg, Female, Harlan Sprague Dawley	6470	8110
12 h, 24 mg/kg, Male, Harlan Sprague Dawley	930	2590
12 h, 80 mg/kg, Female, Harlan Sprague Dawley	3150	9470

Settings	concentration in brain [ng/g]	concentration in plasma [µg/mL]
Rat [1], 0.5 h, dosed: Fluorotelomer alcohol 8+2, 24 mg/kg, oral, Male, Harlan Sprague Dawley	109	–
Rat [1], 0.5 h, dosed: Fluorotelomer alcohol 8+2, 24 mg/kg, oral, Male, Harlan Sprague Dawley - this seems too small	47.2	–
Rat [1], 0.5 h, dosed: Fluorotelomer alcohol 8+2, 80 mg/kg, oral, Female, Harlan Sprague Dawley	139	–
Rat [1], 1 h, dosed: Fluorotelomer alcohol 8+2, 24 mg/kg, oral, Male, Harlan Sprague Dawley	130	–
Rat [1], 1 h, dosed: Fluorotelomer alcohol 8+2, 80 mg/kg, oral, Female, Harlan Sprague Dawley	391	–
Rat [1], 3 h, dosed: Fluorotelomer alcohol 8+2, 24 mg/kg, oral, Male, Harlan Sprague Dawley	425	–
Rat [1], 3 h, dosed: Fluorotelomer alcohol 8+2, 80 mg/kg, oral, Female, Harlan Sprague Dawley	870	–
Rat [1], 6 h, dosed: Fluorotelomer alcohol 8+2, 24 mg/kg, oral, Male, Harlan Sprague Dawley	365	–
Rat [1], 6 h, dosed: Fluorotelomer alcohol 8+2, 80 mg/kg, oral, Female, Harlan Sprague Dawley	1250	–
Rat [1], 12 h, dosed: Fluorotelomer alcohol 8+2, 24 mg/kg, oral, Male, Harlan Sprague Dawley	222	–
Rat [1], 12 h, dosed: Fluorotelomer alcohol 8+2, 80 mg/kg, oral, Female, Harlan Sprague Dawley	632	–
Rat [2], 0.25 h, dosed: 678-39-7, 12 mg/kg, iv, Male, F344	–	0.0455
Rat [2], 0.25 h, dosed: 678-39-7, 40 mg/kg, iv, Male, F344	–	0.0809
Rat [2], 0.25 h, dosed: Fluorotelomer alcohol 8+2, 12 mg/kg, oral, Male, Harlan Sprague Dawley	–	0.0216
Rat [2], 0.5 h, dosed: 678-39-7, 12 mg/kg, iv, Male, F344	–	0.157
Rat [2], 0.5 h, dosed: 678-39-7, 40 mg/kg, iv, Female, Harlan Sprague-Dawley	–	0.4
Rat [2], 0.5 h, dosed: 678-39-7, 40 mg/kg, iv, Male, F344	–	0.64
Rat [2], 0.5 h, dosed: Fluorotelomer alcohol 8+2, 12 mg/kg, oral, Male, Harlan Sprague Dawley	–	0.123
Rat [2], 0.75 h, dosed: 678-39-7, 12 mg/kg, iv, Male, F344	–	0.242
Rat [2], 0.75 h, dosed: 678-39-7, 40 mg/kg, iv, Female, Harlan Sprague-Dawley	–	0.773
Rat [2], 0.75 h, dosed: Fluorotelomer alcohol 8+2, 12 mg/kg, oral, Male, Harlan Sprague Dawley	–	0.405
Rat [2], 1 h, dosed: 678-39-7, 12 mg/kg, iv, Male, F344	–	0.455
Rat [2], 1 h, dosed: 678-39-7, 40 mg/kg, iv, Female, Harlan Sprague-Dawley	–	1.49
Rat [2], 1 h, dosed: Fluorotelomer alcohol 8+2, 12 mg/kg, oral, Male, Harlan Sprague Dawley	–	0.317
Rat [2], 3 h, dosed: 678-39-7, 12 mg/kg, iv, Male, F344	–	0.7
Rat [2], 3 h, dosed: 678-39-7, 40 mg/kg, iv, Male, F344	–	2.42
Rat [2], 3 h, dosed: Fluorotelomer alcohol 8+2, 12 mg/kg, oral, Male, Harlan Sprague Dawley	–	0.794
Rat [2], 5 min, dosed: 678-39-7, 12 mg/kg, iv, Male, F344	–	0.00832
Rat [2], 5 min, dosed: 678-39-7, 40 mg/kg, iv, Male, F344	–	0.0214
Rat [2], 6 h, dosed: 678-39-7, 12 mg/kg, iv, Male, F344	–	0.762
Rat [2], 6 h, dosed: 678-39-7, 40 mg/kg, iv, Male, F344	–	1.63
Rat [2], 6 h, dosed: Fluorotelomer alcohol 8+2, 12 mg/kg, oral, Male, Harlan Sprague Dawley	–	0.619
Rat [2], 9 h, dosed: 678-39-7, 12 mg/kg, iv, Male, F344	–	0.11
Rat [2], 9 h, dosed: 678-39-7, 40 mg/kg, iv, Female, Harlan Sprague-Dawley	–	0.366
Rat [2], 9 h, dosed: 678-39-7, 40 mg/kg, iv, Male, F344	–	0.481
Rat [2], 9 h, dosed: Fluorotelomer alcohol 8+2, 12 mg/kg, oral, Male, Harlan Sprague Dawley	–	0.143
Rat [2], 12 h, dosed: 678-39-7, 12 mg/kg, iv, Male, F344	–	0.0633
Rat [2], 12 h, dosed: 678-39-7, 40 mg/kg, iv, Female, Harlan Sprague-Dawley	–	0.13
Rat [2], 12 h, dosed: Fluorotelomer alcohol 8+2, 12 mg/kg, oral, Male, Harlan Sprague Dawley	–	0.159
Rat [2], 24 h, dosed: 678-39-7, 12 mg/kg, iv, Male, F344	–	0.0986
Rat [2], 24 h, dosed: 678-39-7, 40 mg/kg, iv, Female, Harlan Sprague-Dawley	–	0.498
Rat [2], 24 h, dosed: Fluorotelomer alcohol 8+2, 12 mg/kg, oral, Male, Harlan Sprague Dawley	–	0.189
Rat [2], 48 h, dosed: Fluorotelomer alcohol 8+2, 12 mg/kg, oral, Male, Harlan Sprague Dawley	–	0.112
Rat [2], 192 h, dosed: 678-39-7, 12 mg/kg, iv, Male, F344	–	0.0225
Rat [2], 192 h, dosed: 678-39-7, 40 mg/kg, iv, Male, F344	–	0.134
Rat [2], 192 h, dosed: Fluorotelomer alcohol 8+2, 12 mg/kg, oral, Male, Harlan Sprague Dawley	–	0.0421
Rat [2], 192 h, dosed: Fluorotelomer alcohol 8+2, 24 mg/kg, oral, Male, Harlan Sprague Dawley	–	0.053

Cc1ccc(C)c(OCCCC(C)(C)C(=O)O)c1 [Gemfibrozil]
concentration in plasma [µg/mL], Rat [2], dosed: Gemfibrozil, oral, Male, Sprague-Dawley
Settings	4.29 mg/kg	50 mg/kg	100 mg/kg
0.25 h	0.25	17.9	67.4
0.5 h	0.314	15.7	34.6
1 h	0.147	5.64	26.2
2 h	0.307	3.31	8.5
4 h	0.566	8.04	6.87
5 min	0.395	1.58	13.3
6 h	0.401	9.04	19.6
10 h	0.286	4.86	–
10 min	2.26	7.42	40.2
15 h	0.137	1.87	–
18 h	0.108	0.975	2.19
24 h	0.128	0.92	1.8
